Like-named read-outs stand apart in the source and are kept apart here.
Target: T1, F508delCFTR (Homo sapiens, UniProt P13569, DEL508-508)
T1 construct: expressed in transfected cells; host or cells: CFBE41o- human lung-derived epithelial cells (CFBE4lo-F508delCFTR-HRP), doxycycline-inducible
Experiment: Cell Surface Expression-Horse Radish Peroxidase (CSE-HRP) Assay;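 for Maximum % activity (with co-corrector): co-corrector and positive control are both the same reference corrector at 2 µM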;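 for Maximum % activity (without co-corrector): percent of the 2 µM on-plate positive control corrector response above DMSO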
Type: cell-based
Conditions: for Maximum % activity (with co-corrector) / Emax: maximum at any tested concentration, normalized to on-plate positive control; for Emax: read-out: Maximum % activity (without co-corrector)

[1] = CSE-HRP, test compound without co-corrector, read-out: EC50 (without co-corrector)
[2] = CSE-HRP, with co-corrector (2 μM of 3-[(2R,4R)-4-({[1-(2,2-difluoro-1,3-benzodioxol-5-yl)cyclopropyl]carbonyl}amino)-7-methoxy-3,4-dihydro-2H-chromen-2-yl]benzoic acid), read-out: EC50 (with co-corrector)
[3] = CSE-HRP, with co-corrector (2 μM)
[4] = test compound without co-corrector
[5] = test compound without co-corrector, read-out: EC50 (without co-corrector)
[6] = with co-corrector (2 μM of 3-[(2R,4R)-4-({[1-(2,2-difluoro-1,3-benzodioxol-5-yl)cyclopropyl]carbonyl}amino)-7-methoxy-3,4-dihydro-2H-chromen-2-yl]benzoic acid)
[7] = with co-corrector (2 μM of 3-[(2R,4R)-4-({[1-(2,2-difluoro-1,3-benzodioxol-5-yl)cyclopropyl]carbonyl}amino)-7-methoxy-3,4-dihydro-2H-chromen-2-yl]benzoic acid), read-out: EC50 (with co-corrector)

T1 sequence (P13569 with tags, fused parts or gaps DEL508-508): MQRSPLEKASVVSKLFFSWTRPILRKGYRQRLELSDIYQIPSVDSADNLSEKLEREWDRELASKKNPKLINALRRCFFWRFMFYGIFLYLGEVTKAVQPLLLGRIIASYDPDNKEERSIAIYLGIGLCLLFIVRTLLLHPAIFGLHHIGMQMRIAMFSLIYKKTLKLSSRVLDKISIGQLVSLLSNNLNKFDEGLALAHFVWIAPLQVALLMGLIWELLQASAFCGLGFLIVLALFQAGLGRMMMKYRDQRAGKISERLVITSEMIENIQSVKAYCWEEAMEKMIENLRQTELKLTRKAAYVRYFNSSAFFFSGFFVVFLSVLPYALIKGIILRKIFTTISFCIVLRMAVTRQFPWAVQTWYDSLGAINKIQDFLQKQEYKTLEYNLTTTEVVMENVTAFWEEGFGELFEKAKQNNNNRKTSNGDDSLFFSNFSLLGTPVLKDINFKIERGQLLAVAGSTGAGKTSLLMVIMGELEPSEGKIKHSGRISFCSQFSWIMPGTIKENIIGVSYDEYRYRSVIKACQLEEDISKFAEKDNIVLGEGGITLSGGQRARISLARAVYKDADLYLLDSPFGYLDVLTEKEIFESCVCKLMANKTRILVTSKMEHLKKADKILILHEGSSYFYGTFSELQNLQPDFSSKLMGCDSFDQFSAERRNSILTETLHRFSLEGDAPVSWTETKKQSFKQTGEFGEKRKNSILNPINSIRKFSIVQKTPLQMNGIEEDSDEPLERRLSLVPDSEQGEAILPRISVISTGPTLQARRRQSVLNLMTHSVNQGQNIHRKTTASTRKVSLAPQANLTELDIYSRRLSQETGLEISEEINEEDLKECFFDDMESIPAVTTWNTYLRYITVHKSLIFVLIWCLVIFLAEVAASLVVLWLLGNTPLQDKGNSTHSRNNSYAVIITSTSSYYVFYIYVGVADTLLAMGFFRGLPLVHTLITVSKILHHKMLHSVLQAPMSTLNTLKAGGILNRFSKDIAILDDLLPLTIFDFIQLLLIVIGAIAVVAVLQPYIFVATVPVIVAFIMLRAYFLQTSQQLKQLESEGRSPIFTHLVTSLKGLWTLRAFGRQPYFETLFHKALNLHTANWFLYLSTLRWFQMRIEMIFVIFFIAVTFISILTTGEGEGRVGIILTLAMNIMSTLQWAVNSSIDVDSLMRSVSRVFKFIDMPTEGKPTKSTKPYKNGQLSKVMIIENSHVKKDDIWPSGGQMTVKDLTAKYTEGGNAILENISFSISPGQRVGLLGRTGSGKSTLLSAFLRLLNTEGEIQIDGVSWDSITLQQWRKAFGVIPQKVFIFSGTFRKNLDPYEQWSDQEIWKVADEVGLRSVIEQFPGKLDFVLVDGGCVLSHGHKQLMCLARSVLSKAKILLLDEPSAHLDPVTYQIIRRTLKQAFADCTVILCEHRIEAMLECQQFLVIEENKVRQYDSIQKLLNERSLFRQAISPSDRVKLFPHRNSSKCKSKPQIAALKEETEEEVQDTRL

EC50 [1]	EC50 [2]	Maximum % activity (with co-corrector) [3]	Emax (CSE-HRP, without co-corrector)	Emax [4]	EC50 [5]	Maximum % activity (with co-corrector) [6]	EC50 [7]	Maximum % activity (with co-corrector) (with co-corrector (2 μM))	Emax (without co-corrector)	SMILES
1 to 10 µM	1 to 10 µM	+++ (≥350)	100 to 200%	–	–	–	–	–	–	COc1ccc(C(C)(C)C)cc1CN[C@H]1[C@H](C(C)(C)C)[C@@H](C(=O)O)N(C(=O)C2CC(=O)N(C3CC3)C2)[C@H]1c1ccccc1 (stereo partly shown) [II-239]
–	–	–	–	< 100%	> 10 µM	++ (≥150 and <350)	1 to 10 µM	–	–	CC(C)(C)[C@@H]1[C@@H](Nc2cc(Cl)ccn2)[C@@H](c2ccccc2)N(C(=O)C2CCCCC2)[C@H]1C(=O)O (racemic) [III-6]
–	–	–	–	< 100%	1 to 10 µM	–	1 to 10 µM	++ (≥150 and <350)	–	COc1cc(C(F)(F)F)ccc1CN[C@@H]1[C@@H](C(C)(C)C)[C@H](C(=O)O)N(C(=O)C2CCC3(CC2)CC3)[C@@H]1c1ccccc1 (racemic) [III-105]
–	–	–	–	< 100%	> 10 µM	–	1 to 10 µM	++ (≥150 and <350)	–	CC(C)(C)[C@H]1[C@H](NCc2ccc3c(c2)OCCCO3)[C@H](c2ccccc2)N(C(=O)C2CCCCC2)[C@@H]1C(=O)O [III-129]
1 to 10 µM	1 to 10 µM	+++ (≥350)	> 200%	–	–	–	–	–	–	COc1cc(Cl)ccc1CN[C@@H]1[C@@H](C(C)(C)C)[C@H](C(=O)O)N(C(=O)OC(C)C)[C@@H]1c1ccccc1 (racemic) [II-45]
1 to 10 µM	1 to 10 µM	++ (≥150 and <350)	< 100%	–	–	–	–	–	–	COc1ccc(CN[C@@H]2[C@@H](C(C)(C)C)[C@H](C(=O)O)N(C(=O)C3CCCCC3)[C@@H]2c2ccccc2)c(OC)c1Cl (racemic) [II-3]
–	–	–	–	–	1 to 10 µM	–	1 to 10 µM	+++ (≥350)	< 100%	COc1nc(C(C)(C)C)ccc1CN[C@H]1[C@H](C(C)(C)C)[C@@H](C(=O)O)N(C(=O)[C@@H]2CCC[C@H](OC)C2)[C@H]1c1ccccc1 (relative stereo) [Example I-198]
1 to 10 µM	1 to 10 µM	++ (≥150 and <350)	< 100%	–	–	–	–	–	–	CC(C)(C)[C@H]1[C@H](NCc2ccc(F)c(Oc3ccccc3)c2)[C@H](c2ccccc2)N(C(=O)C2CCCCC2)[C@@H]1C(=O)O [II-130]
–	–	–	–	–	< 1 µM	–	< 1 µM	+++ (≥350)	> 200%	COc1ccc(C(C)(C)C)cc1CN[C@H]1[C@H](C(C)(C)C)[C@@H](C(=O)O)N(C(=O)[C@@H]2CCCC(F)(F)C2)[C@H]1c1ccccc1 [Example 31, (2S,3S,4S,5S)-3-tert-butyl-4-{[(5-tert-butyl-2-methoxyphenyl)methyl]amino}-1-[(1R)-3,3-difluorocyclohexane-1-carbonyl]-5-phenylpyrrolidine-2-carboxylic acid]
1 to 10 µM	1 to 10 µM	+++ (≥350)	100 to 200%	–	–	–	–	–	–	COc1ncc(C2CC2)cc1CN[C@H]1[C@H](C(C)(C)C)[C@@H](C(=O)O)N(C(=O)C2CCCCC2)[C@H]1c1ccccc1 [II-259]
–	–	–	–	> 200%	1 to 10 µM	+++ (≥350)	< 1 µM	–	–	COc1ccc(C(C)(C)C)cc1CN[C@H]1[C@H](C(C)(C)C)[C@@H](C(=O)O)N(C(=O)C2CCCC2)[C@H]1c1ccccc1 [II-332]

Second part, the compound before the results:

SMILES	EC50 [1]	EC50 [2]	Maximum % activity (with co-corrector) [3]	Emax (CSE-HRP, without co-corrector)	Emax [4]	EC50 [5]	Maximum % activity (with co-corrector) [6]	EC50 [7]	Maximum % activity (with co-corrector) (with co-corrector (2 μM))	Emax (without co-corrector)
COc1ccc(C(F)(F)F)cc1CN[C@@H]1[C@@H](C(C)(C)C)[C@H](C(=O)O)N(C(=O)Cc2ccccc2)[C@@H]1c1ccccc1 (racemic) [II-32]	1 to 10 µM	1 to 10 µM	+++ (≥350)	< 100%	–	–	–	–	–	–
COc1ncc(C(F)(F)F)cc1CN[C@H]1[C@H](C(C)(C)C)[C@@H](C(=O)O)N(C(=O)OC(C)C)[C@H]1c1cccnc1N1CCC1 [II-592]	–	–	–	–	> 200%	1 to 10 µM	+++ (≥350)	1 to 10 µM	–	–
COc1ccc(C(C)(C)C)cc1CN[C@H]1[C@H](C(C)(C)C)[C@@H](C(=O)O)N(C(=O)C2CC23CCOCC3)[C@H]1c1ccccc1 (stereo partly shown) [II-442]	–	–	–	–	< 100%	1 to 10 µM	+++ (≥350)	1 to 10 µM	–	–
COc1ccc(C(C)(C)C)cc1CN[C@H]1[C@H](C23CC(C2)C3)[C@@H](C(=O)O)N(C(=O)OC(C)C)[C@H]1c1ccccc1F [III-222]	–	–	–	–	100 to 200%	1 to 10 µM	–	1 to 10 µM	+++ (≥350)	–
COc1ncc(C(C)(C)C)cc1CN[C@H]1[C@H](C(C)(C)C)[C@@H](C(=O)O)N(C(=O)C2CCCCC2)[C@H]1c1cccnc1OC [Example I-135]	–	–	–	–	–	1 to 10 µM	–	1 to 10 µM	+++ (≥350)	> 200%
COc1ccc(Cl)cc1CN[C@@H]1[C@@H](C(C)(C)C)[C@H](C(=O)O)N(C(=O)OC(C)C)[C@@H]1c1cccnc1N(C)C (racemic) [II-28]	1 to 10 µM	1 to 10 µM	+++ (≥350)	> 200%	–	–	–	–	–	–
COc1ccc(C23CC(C2)C3)cc1CN[C@H]1[C@H](C(C)(C)OC)[C@@H](C(=O)O)N(C(=O)OC(C)C)[C@H]1c1cccnc1N(C)C [II-501]	–	–	–	–	> 200%	1 to 10 µM	+++ (≥350)	1 to 10 µM	–	–
COc1cc2c(cc1CN[C@H]1[C@H](C(C)(C)C)[C@@H](C(=O)O)N(C(=O)OC(C)C)[C@H]1c1cccnc1N(C)C)CCC2 [II-563]	–	–	–	–	100 to 200%	1 to 10 µM	+++ (≥350)	1 to 10 µM	–	–
CCn1ccc(=O)c(C(=O)N2[C@H](C(=O)O)[C@@H](C(C)(C)C)[C@H](NCc3cc(C(C)(C)C)ccc3OC)[C@@H]2c2ccccc2)c1 [Example I-101]	–	–	–	–	–	> 10 µM	–	> 10 µM	+ (<150)	< 100%
COc1ncc(C(F)(F)F)cc1CN[C@H]1[C@H](C23CC(C2)C3)[C@@H](C(=O)O)N(C(=O)OC(C)C)[C@H]1c1ccccc1 [III-221]	–	–	–	–	100 to 200%	1 to 10 µM	–	1 to 10 µM	+++ (≥350)	–
COc1ccc(C(C)(C)C)cc1CN[C@H]1[C@H](C(C)(C)C)[C@@H](C(=O)O)N(C(=O)C2CCc3cc(Cl)ccc32)[C@H]1c1ccccc1 (stereo partly shown) [II-369]	–	–	–	–	> 200%	< 1 µM	+++ (≥350)	< 1 µM	–	–
CC(C)(C)[C@H]1[C@H](NCC2(c3cccc(Cl)c3)CCOCC2)[C@H](c2ccccc2)N(C(=O)C2CCCCC2)[C@@H]1C(=O)O [Example 63, (2S,3S,4S,5S)-3-tert-butyl-4-({[4-(3-chlorophenyl)oxan-4-yl]methyl}amino)-1-(cyclohexanecarbonyl)-5-phenylpyrrolidine-2-carboxylic acid]	–	–	–	–	–	1 to 10 µM	–	1 to 10 µM	+++ (≥350)	< 100%
Cc1ccccc1CN[C@@H]1[C@@H](C(C)(C)C)[C@H](C(=O)O)N(C(=O)CC2CCCC2)[C@@H]1c1ccccc1 (racemic) [III-2]	–	–	–	–	< 100%	> 10 µM	++ (≥150 and <350)	1 to 10 µM	–	–
COc1cc(C(F)(F)F)ccc1CN[C@H]1[C@H](C(C)(C)C)[C@@H](C(=O)O)N(C(=O)OC(C)C)[C@H]1c1cccnc1OC [II-513]	–	–	–	–	100 to 200%	1 to 10 µM	+++ (≥350)	1 to 10 µM	–	–

— US20180099931A1 (AbbVie S.à.r.l., priority 2016, published 2018)
